# Laboratory results as given in ChEMBL document CHEMBL5325396, “Discovery of Novel Acridane-Based Tubulin Polymerization Inhibitors with Anticancer and Potential Immunomodulatory Effects” (J Med Chem, 2023).
# What was measured:
# HCT-116 = experiment: Antiproliferative activity against human HCT-116 cells incubated for 48 hrs by MTT assay; type: functional, cell-based; settings: HCT-116, 48 h
# B16-F10 [1] = experiment: Antiproliferative activity against mouse B16-F10 cells incubated for 48 hrs by MTT assay; type: functional, cell-based; settings: B16-F10, 48 h
# HepG2 = experiment: Antiproliferative activity against human HepG2 cells incubated for 48 hrs by MTT assay; type: functional, cell-based; settings: HepG2, 48 h
# HeLa = experiment: cells; settings: Homo sapiens, 48 h
# Description: Antiproliferative activity against human HeLa cells incubated for 48 hrs by MTT assay
# Tubulin = experiment: Inhibition of tubulin polymerization (unknown origin); type: protein-complex assay, Homo sapiens
# B16-F10 [2] = experiment: Induction of cell cycle arrest in mouse B16-F10 cells assessed as accumulation at G1 phase at 20 nM incubated for 24 hrs by PI staining based flow cytometry (reference value: 52.77 %); type: functional
# B16-F10 [3] = experiment: Induction of cell cycle arrest in mouse B16-F10 cells assessed as accumulation at S phase at 20 nM incubated for 24 hrs by PI staining based flow cytometry (reference value: 21.79 %); type: functional
# B16-F10 [4] = experiment: Induction of cell cycle arrest in mouse B16-F10 cells assessed as accumulation at G2 phase at 20 nM incubated for 24 hrs by PI staining based flow cytometry (reference value: 23.04 %); type: functional
# B16-F10 [5] = experiment: Induction of apoptosis in mouse B16-F10 cells assessed as viable cells at 20 nM incubated for 48 hrs by annexinV-FITC/PI staining based flow cytometry (reference value: 93.6 %); type: functional; settings: read-out: Activity
# B16-F10 [6] = experiment: Induction of apoptosis in mouse B16-F10 cells assessed as early apoptotic cells at 20 nM incubated for 48 hrs by annexinV-FITC/PI staining based flow cytometry (reference value: 4.25 %); type: functional
# B16-F10 [7] = experiment: Induction of apoptosis in mouse B16-F10 cells assessed as late apoptotic cells at 20 nM incubated for 48 hrs by annexinV-FITC/PI staining based flow cytometry (reference value: 2.06 %); type: functional
# B16-F10 [8] = experiment: Induction of apoptosis in mouse B16-F10 cells assessed as necrotic cells at 20 nM incubated for 48 hrs by annexinV-FITC/PI staining based flow cytometry (reference value: 0.064 %); type: functional
# [9] = Toxicity in C57 mouse allografted with mouse B16-F10 cells assessed as body weight loss at 10 mg/kg, ip administered consecutively for 14 days; type: organism-based; settings: in vivo, 336 h, time 14 day
# B16-F10 [10] = experiment: Antitumor activity against mouse B16-F10 cells allografted in C57 mouse assessed as tumor growth inhibition at 10 mg/kg, ip administered consecutively for 14 days; type: functional; settings: B16-F10, 336 h, time 14 day, read-out: TGI
# B16-F10 [11] = experiment: Immunomodulatory activity in mouse B16-F10 cells allografted in C57 mouse assessed as decrease in PD-L1 level at 10 mg/kg, ip administered consecutively for 14 days relative to control; type: functional; parameters: scale not given: the % may be the effect or the level left; settings: time 14 day
# B16-F10 [12] = experiment: Immunomodulatory activity in mouse B16-F10 cells allografted in C57 mouse assessed as increase in CD3-positive CD8-positive cells at 10 mg/kg, ip administered consecutively for 14 days (reference value: 6.66 %); type: functional; settings: time 14 day
IC50 (HCT-116) [nM],IC50 (B16-F10 [1]) [nM],IC50 (HepG2) [nM],IC50 (HeLa) [nM],Structure (SMILES),also measured
191,106,69,78,COc1cc(C(=O)N2c3ccccc3Cc3cc(Cl)ccc32)cc(OC)c1OC,
6870,5520,2860,6870,COc1cc(C(=O)N2c3ccccc3Cc3ccc(C(F)(F)F)cc32)cc(OC)c1OC,
> 10000,1980,661,2050,COc1cc(C(=O)N2c3cc(F)ccc3Cc3ccc(F)cc32)cc(OC)c1OC,
129,85,107,104,COc1cc(C(=O)N2c3cc(Br)ccc3Cc3c2ccc(C)c3C)cc(OC)c1OC,
> 10000,> 10000,> 10000,> 10000,COc1cc(C(=O)N2c3ccccc3C(c3ccccc3)c3ccccc32)cc(OC)c1OC,
256,144,35,98,COc1cc(C(=O)N2c3ccccc3Cc3cc(F)ccc32)cc(OC)c1OC,
103,80,91,105,COc1ccc2c(c1)Cc1ccccc1N2C(=O)c1cc(OC)c(OC)c(OC)c1,
257,146,160,1200,COc1cc(C(=O)N2c3ccccc3Cc3ccccc32)cc(OC)c1OC,IC50 (Tubulin): 1600 nM
> 10000,> 10000,> 10000,> 10000,COc1cc(C(=O)N2c3ccccc3Cc3ccc4ccccc4c32)cc(OC)c1OC,
62,56,30,49,COc1cc(C(=O)N2c3ccccc3Cc3c(C)ccc(C)c32)cc(OC)c1OC,
429,845,184,586,COc1cc(C(=O)N2c3cccc(Cl)c3Cc3c(C)ccc(C)c32)cc(OC)c1OC,
> 10000,1020,716,1030,COc1cc(C(=O)N2c3cc(Cl)ccc3Cc3ccc(Cl)cc32)cc(OC)c1OC,
427,211,58,189,COc1cc(C(=O)N2c3ccccc3Cc3ccc(Cl)cc32)cc(OC)c1OC,
> 10000,6900,> 10000,> 10000,COc1cc(C(=O)N2c3ccccc3Cc3ccc(F)cc32)cc(OC)c1OC,
> 10000,752,216,676,COc1cc(C(=O)N2c3cc(F)ccc3Cc3cc4ccccc4cc32)cc(OC)c1OC,
9370,7170,3280,8350,COC(=O)c1ccc2c(c1)N(C(=O)c1cc(OC)c(OC)c(OC)c1)c1ccccc1C2,
,,,,Cc1c(COc2cc(OCc3cccc(C#N)c3)c(CNC(C)(C)C(=O)O)cc2Cl)cccc1-c1ccccc1,Activity [9]: Non-Toxic; inhibition in vivo at 10 mg/kg (B16-F10 [10]): 19%; Activity (B16-F10 [11]): ~45%; Activity (B16-F10 [12]): 14.6%
172,91,102,909,COc1cc(C(=O)N2c3ccccc3Cc3c(C)cccc32)cc(OC)c1OC,
> 10000,1260,630,1160,COC(=O)c1ccc2c(c1)N(C(=O)c1cc(OC)c(OC)c(OC)c1)c1cc(F)ccc1C2,
128,84,83,131,COc1cc(C(=O)N2c3ccccc3Cc3cc(C)ccc32)cc(OC)c1OC,
208,92,161,117,COc1cc(C(=O)N2c3ccccc3Cc3cccc(OC)c32)cc(OC)c1OC,
240,274,30,188,COc1cc(C(=O)N2c3cc(C)ccc3Cc3ccc(F)cc32)cc(OC)c1OC,
250,157,71,86,COc1cc(C(=O)N2c3ccccc3Cc3c(Cl)cccc32)cc(OC)c1OC,

Structure (SMILES),IC50 (HCT-116) [nM],IC50 (B16-F10 [1]) [nM],IC50 (HepG2) [nM],IC50 (HeLa) [nM],also measured
COc1cc2c(c(OC)c1OC)-c1ccc(OC)c(=O)cc1[C@@H](NC(C)=O)CC2 [COLCHICINE],,88,25,126,Activity (B16-F10 [2]): 10.06%; Activity (B16-F10 [3]): 33.02%; Activity (B16-F10 [4]): 55.16%; viability at 0.02 µM (B16-F10 [5]): 81.5%; Activity (B16-F10 [6]): 12.4%; Activity (B16-F10 [7]): 5.68%; Activity (B16-F10 [8]): 0.466%
